Earlier results in US5250561A, “Tetrahydroindazole, tetrahydrocyclopentapyrazole, and hexahydrocycloheptapyrazole compounds and their use as HMG-COA reductase inhibitors” (Ortho Pharmaceutical Corporation, priority 1992, dated 1993).

Experiments:
HMG-CoA reductase = conditions: lovastatin: open dihydroxy acid form; cited from earlier work
[1] = cited from earlier work

Row | SMILES | inhibition of HMG-CoA reductase (in words) (HMG-CoA reductase) | effect of combined administration with other hypolipidemic agents on LDL and total cholesterol concentrations ([1]; combination) | reduction of LDL cholesterol levels compared with cholestyramine and probucol ([1]; primary hypercholesterolemia) | increase in high density lipoprotein (HDL) cholesterol concentration ([1]; several large clinical studies)
1 | CC[C@H](C)C(=O)O[C@H]1C[C@@H](C)C=C2C=C[C@H](C)[C@H](CC[C@@H]3C[C@@H](O)CC(=O)O3)[C@H]21 [lovastatin] | reversible, competitive inhibitor of the enzyme | potentiate their effects on LDL and total cholesterol concentrations | reduced LDL cholesterol levels to a significantly greater extent | up to 10%
2 | CCC(C)(C)C(=O)O[C@H]1C[C@@H](C)C=C2C=C[C@H](C)[C@H](CC[C@@H]3C[C@@H](O)CC(=O)O3)[C@H]21 [simvastatin] | inhibitors of HMG-CoA reductase | – | – | –
